{"source": "patent US20220040160A1", "about": "“COMBINATION OF HISTONE DEACETYLASE INHIBITOR AND IMMUNOTHERAPY” (The United States of America,as represented by the …, priority 2016, published 2022)", "key": {"[1]": {"tested_on": "ER stress response element (ERSE)", "assay": "Luciferase ER stress reporter assay in LNCaP clones", "type": "cell-based, human", "conditions": "designated concentrations", "description": "(§1) Vorinostat and entinostat were obtained from Selleck Chemicals. Adherent tumor cells in log-growth phase were exposed daily to vehicle (DMSO) or vorinostat at the indicated concentrations for 5 h, over 4 consecutive days. At the end of each treatment, cells were washed in fresh medium and returned to incubation at 37° C. with 5% CO2. Alternatively, cells were continuously exposed to vehicle (DMSO) or entinostat at the indicated concentrations for 72 h."}, "[2]": {"tested_on": "non-small cell lung cancer (NSCLC)", "conditions": "entinostat given with the DNMT inhibitor azacitidine; subsequent therapies given immediately after epigenetic therapy; cited from earlier work"}, "[3]": {"tested_on": "LNCaP prostate carcinoma cells", "assay": "Antigen-specific CTL lysis, overnight 111In-release assay", "type": "cell-based, human", "conditions": "E:T=30:1", "description": "as §1\n(§2) Carcinoembryonic antigen (CEA)-specific CTLs recognize the CEA peptide epitope […] (CAP-1) (SEQ ID NO: 1) (Tsang et al., J. Natl. Cancer Inst., 87(13): 982-990 (1995)). Prostate-specific antigen (PSA)-specific CTLs recognize the PSA peptide epitope […] (SEQ ID NO: 2) (Correale et al., J. Natl. Cancer Inst., 89(4): 293-300 (1997)). The mucin-1 (MUC-1)-specific CD8^+ CTL line, designated MUC-1 CTL, recognizes the MUC-1 peptide epitope […] (SEQ ID NO: 3) (Tsang et al., Clin. Cancer Res., 10(6): 2139-2149 (2004)). Brachyury-specific CTLs recognize the brachyury peptide epitope […] (T-p2) (SEQ ID NO: 4) (Tucker et al., Cancer Immunol. Immunother., 63(12): 1307-1317 (2014)). All T-cell lines were HLA-A2-restricted.\nCarcinoma cells exposed to vorinostat, entinostat, or vehicle (DMSO) were labeled with ^111In prior to being used as targets for direct lysis by effector CTLs at an effector-to-target ratio of 30:1 in a standard overnight cytotoxicity ^111In-release assay (Gameiro et al., Oncoimmunology, 3: e28643 (2014)).\nThe effect of clinically relevant vorinostat exposure on prostate and breast carcinoma cells' sensitivity to antigen-specific CTL-mediated lysis was examined. LNCaP and MDA-MB-231 were exposed to vorinostat or to vehicle as before, prior to being used as targets for antigen-specific CTL lysis, using CEA-, brachyury-, MUC-1-, or PSA-specific CD8^+ T cells as effector cells."}, "[4]": {"tested_on": "prostate and breast carcinoma cells", "assay": "NK cell mediated lysis of carcinoma cells", "type": "cell-based, human", "conditions": "after clinically relevant exposure", "description": "Human prostate (LNCaP), breast (MDA-MB-231), and lung (H460) carcinoma cells were exposed to vorinostat or vehicle (DMSO) and the percent lysis was determined. At the end of treatment, the cells were used as targets in a lysis assay wherein NK cells isolated from human PBMCs were used as effectors (varying E:T ratios as indicated in FIG. 7)."}, "[5]": {"tested_on": "antigen processing machinery (APM) components", "assay": "Flow cytometry of APM components and surface markers in MDA-MB-231 cells", "type": "cell-based, human", "description": "(§3) Vorinostat and entinostat were obtained from Selleck Chemicals.\nCell-surface and intracytoplasmic staining was performed as previously described (Ogino et al., J. Immunol. Methods, 278(1-2): 33-44 (2003)). Surface staining of tumor cells was performed using the primary labeled monoclonal antibodies HLA-A2-FITC, ICAM-1 (CD54)-PE, CEA (CD66)-FITC, MUC-1 (CD227)-FITC, and the appropriate isotype-matched controls (BD Biosciences). For intracellular analysis of antigen processing machinery (APM) components, mouse IgG1 (MK2-23) isotype control, LMP2 (SY-1)-, LMP7 (HB2)-, TAP-1 (NOB1)-, calnexin (TO-5)-, β2-microglobulin (L368), and tapasin (TO-3)-specific monoclonal antibodies were developed and characterized as described (Bandoh et al., Tissue Antigens, 66(3): 185-194 (2005); Ogino et al., Tissue Antigens, 62(5): 385-393 (2003); and Wang et al., J. Immunol. Methods, 299(1-2): 139-151 (2005)). Cellular fluorescence of 3×10^4 cells was examined on a FACSCalibur flow cytometer using CellQuest software (BD Biosciences).\nCTL killing of tumor targets requires T-cell recognition of specific major histocompatibility complex (MHC) Class I/CD8^+ restricted epitope complexes on the surface of tumor cells, an event determined by the cooperative interactions of multiple APM components. […] To test this hypothesis, MDA-MB-231 carcinoma cells were exposed to vorinostat or to vehicle as before. At the end of treatment, cells were examined by flow cytometry for intracellular expression of 6 APM components (FIG. 3)."}, "[6]": {"tested_on": "HLA-A2 negative AsPC-1 pancreatic carcinoma cells", "assay": "Antigen-specific CTL lysis, HLA-restriction control", "type": "cell-based, human", "conditions": "cells exposed to vehicle or vorinostat 3 μM", "description": "as §1\nas §2, with “HLA-A2-restricted. […]” for “HLA-A2-restricted.”"}, "[7]": {"tested_on": "HDAC enzymes (isoforms 1-11)", "assay": "HDAC activity assay (EpiQuik colorimetric kit) on nuclear extracts of treated carcinoma cells", "type": "cell-based, human", "conditions": "1 or 3 μM, 5 h daily over 4 days, at 96 h, vs DMSO", "description": "as §3\nChanges in the nuclear enzyme activity of HDAC isoforms 1-11 following vorinostat treatment of MDA-MB-231 and LNCaP cells were determined using the colorimetric EpiQuik HDAC Activity/Inhibition Assay Kit (Epigentek). Briefly, 10 μg of extracted nuclear HDAC proteins were incubated with acetylated HDAC substrate for 90 min at 37° C. HDAC deacetylated products were detected following sequential incubation with capture and detection antibodies, according to the manufacturer's specifications.\n(§4) Therefore, the in vitro effect of clinically relevant exposure of human prostate (LNCaP) and breast (MDA-MB-231) carcinoma cells to vorinostat on the activity of HDAC enzymes (isoforms 1-11), cellular proliferation, and viability was examined. Tumor cells were exposed daily for 5 h to 1 μM or 3 μM vorinostat, or vehicle (DMSO) over 4 consecutive days, mimicking the range of vorinostat exposure (Cmax, AUC) attained in cancer patients after oral once daily intake of 400 mg (Iwamoto et al., Cancer Chemother. Pharmacol., 72(3): 493-508 (2013)). […] Vorinostat concentration of 3 μM was used for all subsequent experiments."}, "[8]": {"tested_on": "H460 lung carcinoma cells", "assay": "Avelumab (anti-PD-L1) mediated ADCC with NK effectors", "type": "cell-based, human", "conditions": "3 μM, 5 h daily, 4 days, anti-PD-L1 vs isotype control", "description": "Lung (H460) and pancreatic (AsPC-1) carcinoma cells were exposed daily for 5 h to vorinostat (3 uM, black circles and bars) or DMSO (open circles and bars) for 4 consecutive days prior to being used as targets PDL-1-mediated ADCC. Upper panel: cell-surface expression of PDL1 in carcinoma targets. Middle panel: NK lysis in the presence of anti-PDL1 or isotype control Ab. Lower panel: H460 lysis in the presence of anti-PDL1 or isotype control antibodies using NK effector cells pre-incubated with anti-CD16 mAb. Results are presented as mean±S.E.M. from 3 replicate wells and are representative of 2-4 independent experiments. Asterisks denote statistical significance relative to controls (2-way ANOVA).\nHuman lung (H460) carcinoma cells were exposed to vorinostat and isotype control, anti-CD16, or anti-PD-L1 (avelumab)."}, "[9]": {"tested_on": "LNCaP prostate carcinoma cells", "assay": "Cell growth and viability, trypan blue count / Live-Dead flow cytometry", "type": "cell-based", "conditions": "1 or 3 μM, 5 h daily over 4 days", "description": "as §1\n(§5) Tumor cells were exposed to DMSO or vorinostat as described above. Cells were harvested daily and viable cells were counted by trypan blue exclusion using a Cellometer Auto T4 automated cell counter (Nexcelom Bioscience). Cellular viability was confirmed by flow cytometry using Live/Dead exclusion, according to manufacturer's instructions (Invitrogen).\nas §4"}, "[10]": {"tested_on": "MDA-MB-231 breast carcinoma cells", "assay": "Cell growth and viability, trypan blue count / Live-Dead flow cytometry", "type": "cell-based", "conditions": "1 or 3 μM, 5 h daily over 4 days", "description": "as §1, §5, §4"}, "[11]": {"tested_on": "MDA-MB-231 breast carcinoma cells", "conditions": "brachyury-specific CTL, 3 μM", "description": "as §1\nas §2, with “(T-p2) (SEQ ID NO: 4) (Tucker et al., Cancer Immunol. Immunother., 63(12): 1307-1317 (2014)). All T-cell lines were HLA-A2-restricted.” left out\nSilencer® siRNA and negative control siRNA were used to silence HDAC1, ERN1, and PERK in MDA-MB-231 carcinoma cells, according to the manufacturer's instructions (Life Technologies). […] Detection and quantification of band intensity were performed with the Odyssey Infrared Imaging System (LI-COR Biotechnology). […]"}, "[12]": {"conditions": "MDA-MB-231, 3 μM, 96 h, intracellular flow cytometry"}}, "data": [{"smiles": "Nc1ccccc1NC(=O)c1ccc(CNC(=O)OCc2cccnc2)cc1", "note": "[entinostat]", "values": [{"measurement": "activation of ERSE (firefly/renilla luciferase ratio normalized to DMSO)", "setting": "[1]; entinostat continuous exposure 72 h", "result": "activated ERSE in an exposure-dependent manner"}, {"measurement": "patients with major objective responses to subsequent anticancer therapies", "setting": "[2]", "result": "4 out of 19"}, {"measurement": "sensitivity to CTL-mediated killing (PSA-specific CTL)", "setting": "[3]; entinostat 500 nM, similar to vorinostat 3 μM, P<0.05", "result": "increased sensitivity"}, {"measurement": "sensitivity to NK cell mediated lysis in vitro", "setting": "[4]", "result": "more sensitive"}]}, {"smiles": "O=C(CCCCCCC(=O)Nc1ccccc1)NO", "note": "[vorinostat]", "values": [{"measurement": "activation of ERSE (firefly/renilla luciferase ratio normalized to DMSO)", "setting": "[1]; vorinostat 5 h daily for 4 days", "result": "activated ERSE in a dose-dependent manner"}, {"measurement": "increase in Tapasin expression", "setting": "[5]; [12]", "result": 22, "unit": "%"}, {"measurement": "increase in expression of LMP2", "setting": "[5]; [12]", "result": "≥ 25", "unit": "%"}, {"measurement": "increase in expression of LMP7", "setting": "[5]; [12]", "result": "≥ 25", "unit": "%"}, {"measurement": "increase in expression of TAP1", "setting": "[5]; [12]", "result": "≥ 25", "unit": "%"}, {"measurement": "increase in expression of calnexin", "setting": "[5]; [12]", "result": "≥ 25", "unit": "%"}, {"measurement": "increase in expression of β2-microglobulin", "setting": "[5]; [12]", "result": "≥ 25", "unit": "%"}, {"measurement": "expression of CEA on the surface of tumor cells", "setting": "[5]; upon exposure to vorinostat", "result": "Increased expression"}, {"measurement": "expression of HLA class I antigens on the surface of tumor cells", "setting": "[5]; upon exposure to vorinostat", "result": "Increased expression"}, {"measurement": "expression of ICAM-1 on the surface of tumor cells", "setting": "[5]; upon exposure to vorinostat", "result": "Increased expression"}, {"measurement": "expression of MUC-1 on the surface of tumor cells", "setting": "[5]; upon exposure to vorinostat", "result": "Increased expression"}, {"measurement": "CTL lysis of HLA-A2 negative targets", "setting": "[6]", "result": "absence of significant lysis"}, {"measurement": "sensitivity to CTL-mediated lysis targeting MUC-1", "setting": "[3]; 3 μM, 5 h daily, 4 days, P<0.0001", "result": "significantly more sensitive"}, {"measurement": "sensitivity to CTL-mediated lysis targeting brachyury", "setting": "[3]; 3 μM, 5 h daily, 4 days, P=0.0004", "result": "significantly more sensitive"}, {"measurement": "sensitivity to CTL-mediated lysis targeting PSA", "setting": "[3]; 3 μM, 5 h daily, 4 days, P=0.0011", "result": "significantly more sensitive"}, {"measurement": "sensitivity to CTL-mediated lysis targeting CEA", "setting": "[3]; 3 μM, 5 h daily, 4 days, P=0.002", "result": "significantly more sensitive"}, {"measurement": "HDAC activity", "setting": "[7]; LNCaP prostate carcinoma cells, P=0.0006", "result": "significantly decreased"}, {"measurement": "HDAC activity", "setting": "[7]; MDA-MB-231 breast carcinoma cells, P=0.0046", "result": "significantly decreased"}, {"measurement": "avelumab-mediated ADCC", "setting": "[8]", "result": "increases"}, {"measurement": "sensitivity to NK cell mediated lysis in vitro", "setting": "[4]", "result": "more sensitive"}, {"measurement": "cellular viability", "setting": "[9]; at 96 h", "result": "no significant effect"}, {"measurement": "cellular proliferation", "setting": "[9]; vs vehicle, P<0.0001", "result": "significantly decreased"}, {"measurement": "cellular viability", "setting": "[10]; at 96 h", "result": "no significant effect"}, {"measurement": "cellular proliferation", "setting": "[10]; vs vehicle, P<0.0001", "result": "significantly decreased"}, {"measurement": "CTL lysis relative to vehicle control", "setting": "[11]; HDAC1-silenced cells", "result": "did not further increase"}, {"measurement": "increase in CTL sensitivity relative to vehicle controls", "setting": "[11]; control siRNA, E:T 30:1, P=0.0024", "result": 2, "unit": "fold"}]}]}
